# Source: patent US20220079962A1, “NUTRITIONAL COMPOSITION COMPRISING 2'FUCOSYLLACTOSE AND DIETARY BUTYRATE” (N.V. Nutricia, priority 2019, published 2022)
# Experiments:
# [1] = test system: human peripheral blood mononuclear cells (PBMC); assay: PBMC cytokine levels, unstimulated condition; type: cell-based
# From the text: Isolation of PBMC from healthy donors: Human peripheral blood mononuclear cells (PBMC) from healthy donors were isolated from buffy coats (Sanquin, Amsterdam, the Netherlands). PBMC were obtained by centrifugation using Leucosep tubes (Greiner Bio-One). […] After lysis, the PBMC were resuspended in freezing medium (70% RPMI 1640 medium (Gibco, Thermo Fisher Technologies) supplemented with 10% heat-inactivated FCS and 100 U/ml penicillin-streptomycin, 20% heat-inactivated FCS and 10% DMSO (Sigma)) and cryopreserved. PBMC activation model: PBMC (0.2.10^6 cell/well) were cultured in 96-well flat bottom plates (Corning). For 24 hours the cells were pre-incubated with 2'-FL (Jennewein), 3'-GL (0-0.3% w/v; […] Sigma Aldrich) and combinations thereof. Subsequently, the cells were CD3/CD28-activated (Pelicluster CD3 and Pelicluster CD28, Sanquin) for an additional 24 hours. After incubation, IFNγ was measured by ELISA in the supernatants (see below). […] Roche) and/or 10% Triton (5 μl; negative control). […] Cytokine production of PBMC: PBMC were incubated with indicated reagents. After incubation, the supernatants were collected and IL2, IL6, IL10, IL13, IL21, TNFα, IFNγ, MIF, CCL1, CCL13, CCL17, CCL20, CCL22 and CXCL8-11 levels were measured by conducting a validated multiplex immunoassay based on Luminex technology (xMAP, Luminex Austin Tex. USA). Acquisition was conducted with the Biorad […] (Biorad laboratories, Hercules USA) in combination with xPONENT software version 4.2 (Luminex). Data was analyzed by 5-parametric curve fitting using Bio-Plex Manager software, version 6.1.1 (Biorad). After PBMC stimulation, cell culture supernatants were collected, after which cytokine responses were measured in order to test immune responsiveness of the cells. The levels of cytokines measured in stimulated conditions were corrected for the (low) levels of the cytokines measured in non-stimulated conditions. In addition, since each donor is reacting in its own efficiency onto the T cell stimulus, we calculated the individual index of cytokine response by dividing the intervention induced response by the basal stimulated response.
# [2] = test system: human peripheral blood mononuclear cells (PBMC); assay: PBMC cell activity (WST-1); type: cell-based; conditions: after 24 h
# Protocol: PBMC activation model: PBMC (0.2.10^6 cell/well) were cultured in 96-well flat bottom plates (Corning). For 24 hours the cells were pre-incubated with 2′-FL (Jennewein), 3′-GL (0-0.3% w/v; […] Sigma Aldrich) and combinations thereof. Subsequently, the cells were CD3/CD28-activated (Pelicluster CD3 and Pelicluster CD28, Sanquin) for an additional 24 hours. After incubation, IFNγ was measured by ELISA in the supernatants (see below). […] Roche) and/or 10% Triton (5 μl; negative control).
# [3] = test system: T84 human intestinal epithelial cells; assay: T84 monolayer barrier integrity (TEER) with IL-4; type: cell-based
# Protocol: T84 human intestinal epithelial cells are commonly used to study intestinal barrier integrity in vitro. T84 cells (ATCC, USA) were cultured on 12 mm transwell inserts (0.4 μm, Corning Costrar, USA) in DMEM-F12 glutamax with penicillin-streptomycin (100 IU/ml), supplemented with 5% FBS-Hl. T84 cells were used 14 days after reaching confluence. Monolayers of T84 cultured on transwell filters were pre-incubated for 48 h with or without butyrate. These samples were subsequently incubated for an additional 48 h in the presence of IL-4 (25 ng/ml). IL-4 was added to the basolateral compartment; medium and additives were changed every 24 h.
# Epithelial barrier integrity was assessed by measuring transepithelial resistance (TEER; Ω×cm^2) with the epithelial volt-ohm meter (EVOM; World Precision Instruments, Germany).
# [4] = test system: Caco-2 cell monolayer; assay: DON-induced impairment of Caco-2 cell monolayer integrity (TEER, lucifer yellow flux); type: cell-based, human; conditions: 24 h pretreatment with 0.75 wt. % GL, then DON 4.2 μM 24 h; FIGS. 1A-D
# Protocol: Caco-2 cells were used according to established methods. In brief: cells were cultured in Dulbecco's modified Eagle medium (DMEM) and seeded at a density of 0.3×10^5 cells into 0.3 cm^2 high pore density (0.4 μm) inserts with a polyethylene terephthalate membrane (BD Biosciences, Franklin Lakes, N.J., USA) placed in a 24-well plate. The Caco-2 cells were maintained in a humidified atmosphere of 95 air and 5% CO2 at 37° C.
# Caco-2 cell monolayers were thus grown in a transwell system, which is a model for intestinal barrier function. The monolayers were pretreated for 24 h with different GLs, including beta3′-GL, alpha3′-GL, beta4′-GL and beta6′-GL in a concentration of 0.75 wt. % of the GL, before being exposed to the fungal toxin deoxynivalenol (DON), which is a trigger and model compound to impair intestinal barrier. DON was diluted to a final concentration of 4.2 μM in complete cell medium and added to the apical side as well as to the basolateral side of the transwell inserts. […] Incubation with DON was 24 h.
# Measurements of the transepithelial electrical resistance (TEER) and lucifer yellow (LY) permeability were conducted to investigate barrier integrity. For TEER measurements a Millicel-ERS voltohmmeter connected to a pair of chopsticks electrodes was used to measure the TEER values. Results are expressed as a percentage of the initial value. For paracellular tracer flux assay the membrane impermeable lucifer yellow (LY) (Sigma, St Louis, Mo., USA) was added in a concentration of 16 μg/ml to the apical compartment in the transwell plate for 4 h, and the paracellular flux was determined by measuring the fluorescence intensity in the basolateral compartment with a spectrophotofluorimeter (FLUOstar Optima, BMG Labtech, Offenburg, Germany) set at excitation and emission wavelengths of 410 and 520 nm, respectively. Release of interleukin-8 (IL-8 or CXCL8), which is a typical marker for inflammation, was quantified in the medium of the apical side and the basolateral side of the Caco-2 transwell inserts in response to the treatments. CXCL8 concentrations were measured by using the human IL-8 ELISA assay (BD Biosciences, Pharmingem, San Diego, Calif., USA) according to manufacturer's instructions. For more details on materials and methods see Akbari et al, 2016, Eur J Nutr. 56(5):1919-1930.
SMILES,"IL10 level compared to blanc control ([1]; 0.2% 2′-FL, 0.2 mM butyrate)",CCL20 level compared to blanc control ([1]; unstimulated),Immune cell activity as measured by WST [2],IL-4 induced disruption of intestinal barrier function [3],"effect on DON-induced loss of epithelial barrier integrity (TEER, LY flux) [4]"
"CCCC(=O)O [butyrate, butyric acid]",did not have an effect on IL10 levels,did not have a statistically significant effect,did not influence immune cell metabolic activity,ameliorated,–
"OC[C@H]1O[C@@H](O[C@@H]2[C@H](O)[C@@H](O)[C@H](O[C@H]3[C@H](O)[C@@H](O)C(O)O[C@@H]3CO)O[C@@H]2CO)[C@H](O)[C@@H](O)[C@H]1O (stereo partly drawn) [beta4′-GL, Gal (beta 1-4)-Gal (beta 1-4)-Glc, reference compound]",–,–,–,–,did not show a significant effect
"OC[C@H]1O[C@@H](OC[C@H]2O[C@@H](O[C@H]3[C@H](O)[C@@H](O)C(O)O[C@@H]3CO)[C@H](O)[C@@H](O)[C@H]2O)[C@H](O)[C@@H](O)[C@H]1O (stereo partly drawn) [beta6′-GL, Gal (beta 1-6)-Gal (beta 1-4)-Glc, reference compound]",–,–,–,–,did not show a significant effect
"OC[C@H]1O[C@H](O[C@H]2[C@@H](O)[C@@H](CO)O[C@@H](O[C@H]3[C@H](O)[C@@H](O)C(O)O[C@@H]3CO)[C@@H]2O)[C@H](O)[C@@H](O)[C@H]1O (stereo partly drawn) [alpha3′-GL, Gal (alpha 1-3)-Gal (beta 1-4)-Glc, reference compound]",–,–,–,–,did not prevent the DON-induced disrupted intestinal barrier
